Test results from PubChem BioAssay AID1963832 (Molecular Pharmacology Branch, DTP, NCI, 2024).

Tested on: 885724-159-R-J1-PDC complex spheroid viability
Experiment: Anticancer human tumor 885724-159-R-J1-PDC patient-derived pancreatic adenocarcinoma cell line growth inhibition [POLQ]
Conditions: for IC50: curve of first compound; for viability, T/C: stronger effect = lower value; active = viability on the fitted dose curve at most 10% of control; inactive = the rest
Protocol: Multicellular complex tumor spheroid response to Polymerase (POL) inhibitors (novobiocin, ART-558, RP6685) in combination with a variety of drugs and investigational agents in selected tumor cell lines
The POL inhibitors (novobiocin, ART-558, and RP6685) were evaluated both individually and in combination with standard of care and investigational anticancer small molecules within a complex spheroid model of solid tumors. . Complex spheroids include a stromal component modeled by human endothelial cells (HUVEC) and fibroblasts modeled by human mesenchymal stem cells (MSCs). The concentration ranges selected for each drug and investigational agent were based upon clinically achievable concentrations if the clinical Cmax of the agent was known.
Compounds. The drugs and investigational agents: novobiocin (NSC847541), ART-558 (NSC835418), RP-6685 (NSC848927), peposertib (NSC802822), ceralasertib (NSC780249), elimusertib (NSC800525), camonsertib (NSC841442), AZD-1390 (NSC803789), olaparib (NSC753686), talazoparib (NSC767125), rucaparib (NSC756644), sotorasib (NSC818433), MRTX-1133 (NSC836407), SN-38 (NSC673596), topotecan (NSC609699), epotoside (NSC141540), doxorubicin (NSC123127), gemcitabine (NSC613327), 5-fluorouracil (NSC19893), paclitaxel (NSC125973), vemurafenib (NSC761431), MSA-2 (NSC828583), SN-011 (NSC837082), adavosertib (NSC754352), prexasertib (NSC758257), carboplatin (NSC241240) and oxaliplatin (NSC266046), were obtained from the National Cancer Institute (NCI) Developmental Therapeutics Program Chemical Repository (21). The FDA-approved anticancer drug set is available from the Developmental Therapeutics Program at https://dtp.cancer.gov/organization/dscb/obtaining/. […] The stock solutions were prepared in dimethyl sulfoxide (DMSO, Sigma-Aldrich, St. Louis, MO, cat. D2650), except for the platinum compounds which were prepared in saline (Quality Biological, Gaithersburg, MD, cat. 114-055-101), at 800-fold the tested concentration and stored at -70 degrees C prior to their use. All drugs and investigational agents were tested over a range starting from a high concentration at or near the clinical Cmax and decreasing in half-log increments. If the clinical Cmax for an agent had not been determined, the highest concentration tested was 10 microM, except for SN-38, which was tested at a high concentration of 1 microM.
Cell Culture. All cells were maintained in an incubator at 37 degrees C and 5% CO2 with 95% humidity. The PDC lines were cultured according to standard operating procedures established by the NCI PDMR (https://pdmr.cancer.gov). Table 3 of the manuscript, lists the cell lines along with the number of the three cell types plated to form the mct-spheroids and media for tumor cell growth. After thawing, all PDC lines, except 997537-175-T-J1-PDC and 415267-285-R-J2-PDC, were cultured in Matrigel-coated flasks prepared with a working solution of 1X Ham's F-12 nutrient mix, without supplementation (Thermo Fisher Scientific, cat. 11765054), 100 U/mL penicillin-streptomycin (Thermo Fisher Scientific, cat. 15140122), and 2.5% Matrigel (Corning Inc., Corning, NY, cat. 354248) for the first three passages. The two PDC lines 997537-175-T-J1-PDC and 415267-285-R-J2-PDC were cultured on uncoated flasks. The 857933-349-R-J2-PDC line was cultured in 6C/Colon 1B media containing advanced DMEM/F-12 (Thermo Fisher Scientific, cat. 12634028), 10 mM HEPES (Thermo Fisher Scientific, cat. 15630080), 1X GlutaMAX supplement (Thermo Fisher Scientific, cat. 35050061), 0.1 mg/mL primocin (InvivoGen, San Diego, CA, cat. ant-pm-2), 10% defined fetal bovine serum, heat inactivated (HyClone Laboratories Inc., Logan, UT, cat. SH30070.03HI), 50% L-WRN conditioned media (ATCC, cat. CRL-3276), 1.25 mM N-Acetyl-L-cysteine (Sigma-Aldrich, cat. A9165), 10 mM nicotinamide (Sigma-Aldrich, cat. N0636), 1X B-27 supplement (Thermo Fisher Scientific, cat. 17504044), 1X N-2 supplement (Thermo Fisher Scientific, cat. […]

[1] = second compound 0.0316 µM, first compound 0.0316 µM
[2] = second compound 0.0316 µM, first compound 0.1 µM
[3] = second compound 0.0316 µM, first compound 0.316 µM
[4] = second compound 0.0316 µM, first compound 1 µM
[5] = second compound 0.0316 µM, first compound 3.16 µM
[6] = second compound 0.0316 µM, first compound 10 µM
[7] = second compound 0.1 µM, first compound 0.0316 µM
[8] = second compound 0.1 µM, first compound 0.1 µM
[9] = second compound 0.1 µM, first compound 0.316 µM
[10] = second compound 0.1 µM, first compound 1 µM
[11] = second compound 0.1 µM, first compound 3.16 µM
[12] = second compound 0.1 µM, first compound 10 µM
[13] = second compound 0.316 µM, first compound 0.0316 µM
[14] = second compound 0.316 µM, first compound 0.1 µM
[15] = second compound 0.316 µM, first compound 0.316 µM
[16] = second compound 0.316 µM, first compound 1 µM
[17] = second compound 0.316 µM, first compound 3.16 µM
[18] = second compound 0.316 µM, first compound 10 µM
[19] = second compound 1 µM, first compound 0.0316 µM
[20] = second compound 1 µM, first compound 0.1 µM
[21] = second compound 1 µM, first compound 0.316 µM
[22] = second compound 1 µM, first compound 1 µM
[23] = second compound 1 µM, first compound 3.16 µM
[24] = second compound 1 µM, first compound 10 µM
[25] = second compound 3.16 µM, first compound 0.0316 µM
[26] = second compound 3.16 µM, first compound 0.1 µM
[27] = second compound 3.16 µM, first compound 0.316 µM
[28] = second compound 3.16 µM, first compound 1 µM
[29] = second compound 3.16 µM, first compound 3.16 µM
[30] = second compound 3.16 µM, first compound 10 µM
[31] = second compound 10 µM, first compound 0.0316 µM
[32] = second compound 10 µM, first compound 0.1 µM
[33] = second compound 10 µM, first compound 0.316 µM
[34] = second compound 10 µM, first compound 1 µM
[35] = second compound 10 µM, first compound 3.16 µM
[36] = second compound 10 µM, first compound 10 µM
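Note: spheroids exposed to compounds for 7 days.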

COc1cc2cc(C(=O)CCC(=O)O)sc2cc1OC + Cc1cccc(N(C)C(=O)C2C(O)CCN2c2nc(C)cc(C(F)(F)F)c2C#N)c1
inactive: viability, T/C [1] 108% | viability, T/C [2] 104% | viability, T/C [3] 100% | viability, T/C [4] 103% | viability, T/C [5] 107% | viability, T/C [6] 95.6% | viability, T/C [7] 114% | viability, T/C [8] 103% | viability, T/C [9] 96.9% | viability, T/C [10] 104% | viability, T/C [11] 99.2% | viability, T/C [12] 103% | viability, T/C [13] 99.5% | viability, T/C [14] 106% | viability, T/C [15] 89.2% | viability, T/C [16] 109% | viability, T/C [17] 98.4% | viability, T/C [18] 85.7% | viability, T/C [19] 105% | viability, T/C [20] 114% | viability, T/C [21] 93.1% | viability, T/C [22] 104% | viability, T/C [23] 105% | viability, T/C [24] 93.5% | viability, T/C [25] 116% | viability, T/C [26] 96.5% | viability, T/C [27] 103% | viability, T/C [28] 98% | viability, T/C [29] 104% | viability, T/C [30] 88.6% | viability, T/C [31] 101% | viability, T/C [32] 105% | viability, T/C [33] 99.2% | viability, T/C [34] 102% | viability, T/C [35] 87.7% | viability, T/C [36] 92.5%
> 10 µM: IC50 (second compound 0.0316 µM) | IC50 (second compound 0.1 µM) | IC50 (second compound 0.316 µM) | IC50 (second compound 1 µM) | IC50 (second compound 3.16 µM) | IC50 (second compound 10 µM)

O=C(Nc1ccc(O)c(NS(=O)(=O)c2ccc(F)cc2)c1)c1ccc(-c2ccccc2)cc1 + Cc1cccc(N(C)C(=O)C2C(O)CCN2c2nc(C)cc(C(F)(F)F)c2C#N)c1
inactive: viability, T/C [1] 110% | viability, T/C [2] 92.4% | viability, T/C [3] 101% | viability, T/C [4] 102% | viability, T/C [5] 106% | viability, T/C [6] 102% | viability, T/C [7] 96.6% | viability, T/C [8] 103% | viability, T/C [9] 94.2% | viability, T/C [10] 107% | viability, T/C [11] 111% | viability, T/C [12] 117% | viability, T/C [13] 102% | viability, T/C [14] 92.3% | viability, T/C [15] 98.3% | viability, T/C [16] 101% | viability, T/C [17] 118% | viability, T/C [18] 108% | viability, T/C [19] 110% | viability, T/C [20] 91.2% | viability, T/C [21] 107% | viability, T/C [22] 106% | viability, T/C [23] 112% | viability, T/C [24] 111% | viability, T/C [25] 107% | viability, T/C [26] 90.1% | viability, T/C [27] 105% | viability, T/C [28] 104% | viability, T/C [29] 115% | viability, T/C [30] 107% | viability, T/C [31] 105% | viability, T/C [32] 102% | viability, T/C [33] 104% | viability, T/C [34] 108% | viability, T/C [35] 123% | viability, T/C [36] 101%
> 10 µM: IC50 (second compound 0.0316 µM) | IC50 (second compound 0.1 µM) | IC50 (second compound 0.316 µM) | IC50 (second compound 1 µM) | IC50 (second compound 3.16 µM) | IC50 (second compound 10 µM)
